ChEMBL document CHEMBL5131455 (Bioorg Med Chem Lett, 2022)
In brackets after ≈: the same amount, converted by molar mass. One block for each molecule: values may come before it.

How the values were obtained:
[1] = AUC in rat plasma at 30 mg/kg, po in presence of [14-C]asciminib relative to radioactivity of [14-C] AUC; type: ADME, organism-based; settings: in vivo
[2] = Drug uptake in male rat central nervous system at 30 mg/kg, po; type: ADME, organism-based; settings: in vivo, BLD = below limit of detection
[3] = Solubility of the compound in pH 1 0.1N HCl buffer incubated up to 72 hrs by shake flask method; type: physicochemical
[4] = Drug uptake in female rat central nervous system at 30 mg/kg, po; type: ADME, organism-based; settings: in vivo
[5] = Apparent permeability in MDCK cells; type: ADME, cell-based, Canis lupus familiaris; settings: dog, MDCK-MDR1
[6] = Solubility of the compound in chloride free pH 6.8 phosphate buffer incubated up to 72 hrs by shake flask method; type: physicochemical
[7] = AUC (0 to 8 hrs) in human plasma at 80 mg, po qd administered as water suspension by HPLC analysis relative to radioactivity of 14-C AUC; type: ADME, organism-based; settings: in vivo
[8] = AUC (0 to 8 hrs) in rat plasma at 30 mg/kg, po relative to radioactivity of 14-C AUC; type: ADME, organism-based; settings: in vivo
[9] = Apparent permeability across basolateral to apical side in human Caco-2 cells; type: ADME, cell-based
[10] = Ratio of drug level in C57BL/6 mouse blood to brain at 1 mg/kg, iv measured after 5 mins; type: ADME, organism-based; settings: in vivo
[11] = Apparent permeability across apical to basolateral side in human Caco-2 cells; type: ADME, cell-based
[12] = Intrinsic clearance in mouse liver microsomes; type: ADME, Microsome; settings: read-out: CLH
[13] = Dose normalized AUC (infinity) in C57BL/6 mouse blood at 30 mg/kg, po; type: ADME, organism-based; settings: in vivo
[14] = Dose normalized Cmax in C57BL/6 mouse at 30 mg/kg, po; type: ADME, organism-based; settings: in vivo
[15] = Unbound brain to plasma concentration ratio in C57BL/6 mouse brain at 30 mg/kg, ip; type: ADME, organism-based; settings: brain and plasma, read-out: K(p,uu,brain)
[16] = Antiproliferative activity against human CMK-86 cells measured after 72 hrs by celltiter-glo luminescent cell viability assay; type: functional, cell-based
[17] = Antiproliferative activity against human Fu97 cells measured after 72 hrs by celltiter-glo luminescent cell viability assay; type: functional, cell-based
[18] = Dose normalized AUC (infinity) in C57BL/6 mouse at 1 mg/kg, iv; type: ADME, organism-based; settings: in vivo
hERG (KCNH2) = hERG (KCNH2) (Homo sapiens, UniProt Q12809); experiment: Displacement of [3H]dofetilide from human ERG expressed in HEK293 cells at 30 uM measured after 45 mins by topcount scintillation counting method relative to control; type: toxicity, cell-based; settings: HEK293 cells that express hERG, probe [3H]dofetilide
BaF3 = experiment: Antiproliferative activity against mouse BaF3 cells expressing BCR-ABL by ATP-luminescence assay; type: functional, cell-based
[19] = Dose normalized AUC (infinity) in C57BL/6 mouse brain at 30 mg/kg, ip; type: ADME, organism-based; settings: in vivo
[20] = Antiproliferative activity against human KBM-7 cells measured after 72 hrs by celltiter-glo luminescent cell viability assay; type: functional, cell-based
[21] = Intrinsic clearance in human liver microsomes; type: ADME, Microsome; settings: read-out: CLH
[22] = Ratio of drug level in C57BL/6 mouse blood to brain at 30 mg/kg, ip measured at 4 hrs; type: ADME, organism-based; settings: in vivo
[23] = biological target: Voltage-gated inwardly rectifying potassium channel KCNH2 (Homo sapiens, UniProt Q12809); experiment: Displacement of [3H]dofetilide from human ERG expressed in HEK293 cells measured after 45 mins by topcount scintillation counting method; type: toxicity, cell-based
[24] = Clearance in C57BL/6 mouse at 1 mg/kg, iv; type: ADME, organism-based; settings: in vivo
MDR1 = experiment: Efflux ratio of apparent permeability across basolateral to apical side over apical to basolateral side in MDCK-MDR1 cells; type: ADME, cell-based, Canis lupus familiaris; settings: dog
[25] = Volume of distribution at steady state in C57BL/6 mouse at 1 mg/kg, iv; type: ADME, organism-based; settings: in vivo, read-out: Vdss
[26] = Ratio of drug level in C57BL/6 mouse blood to brain at 10 mg/kg, ip measured at 4 hrs; type: ADME, organism-based; settings: in vivo
[27] = Ratio of drug level in C57BL/6 mouse brain at 30 mg/kg, ip to IC50 for antiproliferative activity against mouse BaF3 cells expressing BCR-ABL by ATP-luminescence assay; type: organism-based; settings: in vivo
[28] = biological target: Tyrosine-protein kinase ABL1 (Homo sapiens, UniProt P00519); experiment: Inhibition of transphosphorylation of ABL1 SH1-3 domain (64 to 515 residues) (unknown origin) expressed in Escherichia coli using FITC-Ahx-EAIYAAPFAKKK-NH2) as substrate measured after 60 mins by caliper method
[29] = Dose normalized Cmax in C57BL/6 mouse at 30 mg/kg, ip; type: ADME, organism-based; settings: in vivo
[30] = Intrinsic clearance in rat liver microsomes; type: ADME, Microsome; settings: read-out: CLH
[31] = Dose normalized AUC (infinity) in C57BL/6 mouse blood at 30 mg/kg, ip; type: ADME, organism-based; settings: in vivo
Mu-type opioid receptor [32] = biological target: T1, Mu-type opioid receptor (Homo sapiens, UniProt P35372); experiment: Displacement of [3H]morphine binding to recombinant human full-length MOR expressed in CHO-K1 cells at 30 uM measured after 60 mins by scintillation counting analysis relative to control; type: cell-based
[33] = Intrinsic clearance in dog liver microsomes; type: ADME, Canis lupus familiaris, Microsome; settings: read-out: CLH
Mu-type opioid receptor [34] = biological target: T1, Mu-type opioid receptor; experiment: Displacement of [3H]morphine binding to recombinant human full-length MOR expressed in CHO-K1 cells measured after 60 mins by scintillation counting analysis; type: cell-based
[35] = Tmax in C57BL/6 mouse at 30 mg/kg, ip; type: ADME, organism-based; settings: in vivo
[36] = Tmax in C57BL/6 mouse at 30 mg/kg, po; type: ADME, organism-based; settings: in vivo
[37] = Dose normalized AUC (infinity) in C57BL/6 mouse brain at 10 mg/kg, ip measured up to 4 hrs; type: ADME, organism-based; settings: in vivo
[38] = Drug level in C57BL/6 mouse brain at 30 mg/kg, ip measured at 4 hrs; type: ADME, organism-based; settings: read-out: Drug uptake
[39] = Half life in C57BL/6 mouse at 1 mg/kg, iv; type: ADME, organism-based; settings: in vivo
[40] = Efflux ratio of apparent permeability across basolateral to apical side over apical to basolateral side in human Caco2 cells; type: ADME, cell-based; settings: Caco-2
[41] = Antiproliferative activity against human SNU-213 cells measured after 72 hrs by celltiter-glo luminescent cell viability assay; type: functional, cell-based

T1 sequence (P35372 whole entry): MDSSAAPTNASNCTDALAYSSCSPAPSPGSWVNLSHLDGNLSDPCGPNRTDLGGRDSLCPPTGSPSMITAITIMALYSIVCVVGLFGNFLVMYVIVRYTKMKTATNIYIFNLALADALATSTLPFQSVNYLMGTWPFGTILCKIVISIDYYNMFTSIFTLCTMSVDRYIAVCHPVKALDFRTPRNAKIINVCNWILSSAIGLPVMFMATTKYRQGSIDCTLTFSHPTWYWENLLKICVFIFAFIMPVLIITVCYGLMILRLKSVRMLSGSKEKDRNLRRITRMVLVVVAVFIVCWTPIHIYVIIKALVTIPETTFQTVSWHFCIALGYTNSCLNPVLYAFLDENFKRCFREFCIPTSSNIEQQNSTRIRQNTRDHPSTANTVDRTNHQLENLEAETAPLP
Chain of Tyrosine-protein kinase ABL1 (P00519 whole entry, the tested form may be a part): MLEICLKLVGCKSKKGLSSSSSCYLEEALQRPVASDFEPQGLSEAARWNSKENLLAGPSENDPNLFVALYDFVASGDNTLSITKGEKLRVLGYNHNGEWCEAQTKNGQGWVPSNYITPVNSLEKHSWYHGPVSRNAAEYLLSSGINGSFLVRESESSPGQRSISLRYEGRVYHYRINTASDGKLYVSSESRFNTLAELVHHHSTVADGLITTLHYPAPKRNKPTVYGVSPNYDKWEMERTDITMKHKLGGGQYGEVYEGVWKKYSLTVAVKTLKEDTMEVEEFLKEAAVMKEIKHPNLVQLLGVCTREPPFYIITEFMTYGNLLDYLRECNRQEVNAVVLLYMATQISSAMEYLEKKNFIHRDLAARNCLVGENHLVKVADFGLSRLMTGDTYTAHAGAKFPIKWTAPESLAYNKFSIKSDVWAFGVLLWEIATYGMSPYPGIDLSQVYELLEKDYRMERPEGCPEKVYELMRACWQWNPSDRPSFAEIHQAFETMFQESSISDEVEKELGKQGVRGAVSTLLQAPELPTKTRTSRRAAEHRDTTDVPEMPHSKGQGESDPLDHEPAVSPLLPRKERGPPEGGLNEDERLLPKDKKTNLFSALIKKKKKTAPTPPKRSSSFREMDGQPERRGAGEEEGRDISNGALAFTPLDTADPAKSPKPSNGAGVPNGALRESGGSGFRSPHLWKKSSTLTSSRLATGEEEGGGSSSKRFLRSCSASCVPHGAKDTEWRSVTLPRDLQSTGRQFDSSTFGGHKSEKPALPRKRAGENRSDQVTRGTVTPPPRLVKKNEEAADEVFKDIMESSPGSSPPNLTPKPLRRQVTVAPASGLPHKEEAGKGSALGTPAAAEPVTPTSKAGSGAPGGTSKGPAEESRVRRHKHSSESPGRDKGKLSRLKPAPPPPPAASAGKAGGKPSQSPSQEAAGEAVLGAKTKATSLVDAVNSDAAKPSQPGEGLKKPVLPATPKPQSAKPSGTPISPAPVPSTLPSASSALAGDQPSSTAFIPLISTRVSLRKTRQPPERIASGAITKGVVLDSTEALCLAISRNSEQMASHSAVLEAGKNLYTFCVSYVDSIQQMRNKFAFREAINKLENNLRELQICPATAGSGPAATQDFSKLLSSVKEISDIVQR
Chain of Voltage-gated inwardly rectifying potassium channel KCNH2 (Q12809 whole entry): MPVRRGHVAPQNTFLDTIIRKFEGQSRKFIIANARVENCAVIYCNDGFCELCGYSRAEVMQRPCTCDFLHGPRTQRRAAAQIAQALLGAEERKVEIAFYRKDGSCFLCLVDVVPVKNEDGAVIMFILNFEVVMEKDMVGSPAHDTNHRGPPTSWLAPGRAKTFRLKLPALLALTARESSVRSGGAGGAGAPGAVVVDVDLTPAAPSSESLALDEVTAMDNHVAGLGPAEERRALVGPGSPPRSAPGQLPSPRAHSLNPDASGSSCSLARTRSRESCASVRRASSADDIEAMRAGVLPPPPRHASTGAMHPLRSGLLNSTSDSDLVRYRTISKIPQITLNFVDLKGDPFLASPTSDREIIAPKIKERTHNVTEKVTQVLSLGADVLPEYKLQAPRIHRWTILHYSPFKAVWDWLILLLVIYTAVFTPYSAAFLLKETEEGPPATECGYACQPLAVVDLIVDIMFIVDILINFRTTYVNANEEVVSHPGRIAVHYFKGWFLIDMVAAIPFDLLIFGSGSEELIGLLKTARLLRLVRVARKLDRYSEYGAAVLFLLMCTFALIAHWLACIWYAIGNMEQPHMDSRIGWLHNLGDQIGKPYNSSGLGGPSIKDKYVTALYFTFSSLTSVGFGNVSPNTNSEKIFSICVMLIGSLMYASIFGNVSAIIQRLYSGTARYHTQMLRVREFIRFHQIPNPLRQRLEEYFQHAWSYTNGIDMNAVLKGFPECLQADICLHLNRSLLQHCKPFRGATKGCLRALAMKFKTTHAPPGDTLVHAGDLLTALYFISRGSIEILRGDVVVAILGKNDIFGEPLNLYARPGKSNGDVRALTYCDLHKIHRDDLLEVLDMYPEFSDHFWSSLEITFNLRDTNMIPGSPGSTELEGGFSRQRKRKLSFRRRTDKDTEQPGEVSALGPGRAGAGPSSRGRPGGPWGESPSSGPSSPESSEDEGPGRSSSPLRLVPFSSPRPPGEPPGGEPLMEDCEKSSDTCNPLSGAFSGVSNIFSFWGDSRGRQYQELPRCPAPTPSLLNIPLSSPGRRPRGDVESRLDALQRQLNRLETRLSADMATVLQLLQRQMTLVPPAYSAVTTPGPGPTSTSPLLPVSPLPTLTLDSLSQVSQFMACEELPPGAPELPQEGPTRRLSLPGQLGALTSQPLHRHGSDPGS
Chain of hERG (KCNH2) (Q12809 whole entry): as above

- Drug uptake [1]: 1.88%
SMILES: O=C1CCN(c2ncc(C(=O)Nc3ccc(OC(F)(F)Cl)cc3)cc2-c2ccn[nH]2)C1

- Drug uptake [1]: 0.39%
SMILES: O=C(Nc1ccc(OC(F)(F)Cl)cc1)c1cnc(NCCC(O)CO)c(-c2ccn[nH]2)c1 (stereo not drawn)

- Drug uptake [2]: Bld
- solubility thermodynamic at 72 h [3]: > 1500 µg/mL
- Drug uptake [4]: Active
- Papp [5]: 21.1 ×10⁻⁶ cm/s
- solubility thermodynamic at 72 h [6]: 4 µg/mL (≈ 8.89 µM)
- Drug uptake [7]: 92.7%
- Drug uptake [8]: 86%
SMILES: O=C(Nc1ccc(OC(F)(F)Cl)cc1)c1cnc(N2CC[C@@H](O)C2)c(-c2ccn[nH]2)c1 [ASCIMINIB]

- Papp B→A [9]: 11.1 ×10⁻⁶ cm/s
- Ratio [10]: 3.29
- Papp A→B [11]: 27.1 ×10⁻⁶ cm/s
- CLint scaled [12]: 31 mL/min/kg
- AUC/dose [13]: 5139 nM·h
- Cmax/dose [14]: 0.629 µM
- solubility thermodynamic at 72 h [3]: > 1500 µg/mL
- Kp uu [15]: 0.91
- AUC/dose [18]: 2875 nM·h
- GI50 (BaF3): 69 nM
- IC50 (BaF3): 75 nM
- AUC/dose [19]: 27926 nM·h
- CLint scaled [21]: 16 mL/min/kg
- Ratio [22]: 2.65
- Papp [5]: 24.5 ×10⁻⁶ cm/s
- clearance [24]: 17 mL/min/kg
- efflux ratio (MDR1): 1.03
- Vd [25]: 1.2 L/kg
- Ratio [26]: 2.32
- IC50 [28]: 33 nM
- Cmax/dose [29]: 0.643 µM
- CLint scaled [30]: 56 mL/min/kg
- solubility thermodynamic at 72 h [6]: 3 µg/mL (≈ 8.35 µM)
- AUC/dose [31]: 6672 nM·h
- inhibition (Mu-type opioid receptor [32]): > 50%
- CLint scaled [33]: 30 mL/min/kg
- AC50 (Mu-type opioid receptor [34]): 9780 nM
- Tmax [35]: 1.8 h
- Tmax [36]: 1 h
- AUC/dose [37]: 15720 nM·h
- concentration at 4 h [38]: 34.9 µM
- half-life [39]: 0.9 h
- efflux ratio [40]: 0.41
SMILES: O=C(Nc1ccc(OC(F)(F)F)cc1)c1cncc(-c2cccnc2)c1
- IC50 ([16]; Homo sapiens, CMK-86, 72 h): 1600 nM
- %max ([16]; time 72 hrs): 62%
- IC50 ([17]; Homo sapiens, Fu97, 72 h): > 30000 nM
- %max ([17]; time 72 hrs): 55%
- inhibition at 0.75 h, 30 µM (hERG (KCNH2)): > 50%
- IC50 ([20]; Homo sapiens, KBM-7, 72 h): 197 nM
- %max ([20]; time 72 hrs): 98%
- AC50 [23]: 2800 nM
- Ratio [27]: 465
- IC50 ([41]; Homo sapiens, SNU-213, 72 h): 25000 nM
- %max ([41]; time 72 hrs): 62%
